For assay [1], the target named is T1, Histone deacetylase 5 (Homo sapiens, UniProt Q9UQL6). Nature of the assay: Inhibition of N-terminal GST-tagged human recombinant full length HDAC5 expressed in baculovirus-infected Sf9 cells assessed as reduction in 7-amino-4-methylcoumarin release measured every 5 mins by fluorescence based analysis.
The target of assay [2] is Histone deacetylase 9 (Homo sapiens, UniProt Q9UKV0). Nature of the assay: Inhibition of C-terminal His-tagged human HDAC9 (604 to 1066 residues) expressed in baculovirus-infected Sf9 cells assessed as reduction in 7-amino-4-methylcoumarin release measured every 5 mins by fluorescence based analysis.
Chain of Histone deacetylase 9 (Q9UKV0 whole entry, the tested form may be a part): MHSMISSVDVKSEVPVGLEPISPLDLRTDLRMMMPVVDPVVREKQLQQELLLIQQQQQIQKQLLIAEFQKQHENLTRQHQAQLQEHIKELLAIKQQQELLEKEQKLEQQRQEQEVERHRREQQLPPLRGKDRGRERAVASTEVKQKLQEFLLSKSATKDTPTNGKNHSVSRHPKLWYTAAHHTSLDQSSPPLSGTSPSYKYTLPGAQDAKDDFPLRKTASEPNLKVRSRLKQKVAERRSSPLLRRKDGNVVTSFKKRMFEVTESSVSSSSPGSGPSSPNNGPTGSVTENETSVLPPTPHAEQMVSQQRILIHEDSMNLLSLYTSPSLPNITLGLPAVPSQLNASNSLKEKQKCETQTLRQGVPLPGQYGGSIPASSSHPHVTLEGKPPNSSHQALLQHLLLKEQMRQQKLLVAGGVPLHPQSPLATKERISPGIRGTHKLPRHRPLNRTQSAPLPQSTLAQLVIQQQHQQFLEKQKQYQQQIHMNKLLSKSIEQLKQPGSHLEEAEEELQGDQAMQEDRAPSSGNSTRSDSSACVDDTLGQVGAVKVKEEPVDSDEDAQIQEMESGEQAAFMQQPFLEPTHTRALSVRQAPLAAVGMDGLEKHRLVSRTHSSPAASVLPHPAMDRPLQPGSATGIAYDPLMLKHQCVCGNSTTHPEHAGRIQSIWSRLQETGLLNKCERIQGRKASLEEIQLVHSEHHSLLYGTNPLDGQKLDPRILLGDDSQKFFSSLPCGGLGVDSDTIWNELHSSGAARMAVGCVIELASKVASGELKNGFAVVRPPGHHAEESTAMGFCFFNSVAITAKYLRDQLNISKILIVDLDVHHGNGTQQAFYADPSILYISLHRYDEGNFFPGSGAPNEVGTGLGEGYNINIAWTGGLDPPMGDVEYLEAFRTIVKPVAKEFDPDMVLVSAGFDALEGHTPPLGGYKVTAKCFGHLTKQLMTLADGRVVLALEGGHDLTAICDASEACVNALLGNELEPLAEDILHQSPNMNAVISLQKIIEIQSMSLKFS
The target of assay [3] is Histone deacetylase 3/Nuclear receptor corepressor 2 (HDAC3/NCoR2) (Homo sapiens, UniProt O15379). Nature of the assay: Inhibition of C-terminal His-tagged human recombinant full length HDAC3 (1 to 428 residues)/N-terminal GST-tagged human recombinant NCOR2 (395 to 489 residues) expressed in baculovirus-infected Sf9 cells assessed as reduction in 7-amino-4-methylcoumarin release using fluorogenic HDAC substrate 3 measured every 5 mins by fluorescence based analysis.
Chain of Histone deacetylase 3/Nuclear receptor corepressor 2 (HDAC3/NCoR2) (O15379 whole entry, the tested form may be a part): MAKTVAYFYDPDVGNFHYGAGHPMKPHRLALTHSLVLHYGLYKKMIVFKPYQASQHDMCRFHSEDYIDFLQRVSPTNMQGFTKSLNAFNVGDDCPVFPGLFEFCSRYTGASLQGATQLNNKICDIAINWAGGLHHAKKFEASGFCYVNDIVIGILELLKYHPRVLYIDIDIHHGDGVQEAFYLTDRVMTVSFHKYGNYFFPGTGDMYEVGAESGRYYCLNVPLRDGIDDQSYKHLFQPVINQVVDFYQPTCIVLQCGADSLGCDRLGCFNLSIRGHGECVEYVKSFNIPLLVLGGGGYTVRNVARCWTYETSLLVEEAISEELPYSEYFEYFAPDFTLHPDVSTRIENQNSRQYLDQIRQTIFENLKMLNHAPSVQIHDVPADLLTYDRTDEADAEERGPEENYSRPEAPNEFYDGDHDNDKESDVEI
Chain of Histone deacetylase 3/Nuclear receptor corepressor 2 (HDAC3/NCoR2) (Q9Y618 whole entry, further chain, the tested form may be a part): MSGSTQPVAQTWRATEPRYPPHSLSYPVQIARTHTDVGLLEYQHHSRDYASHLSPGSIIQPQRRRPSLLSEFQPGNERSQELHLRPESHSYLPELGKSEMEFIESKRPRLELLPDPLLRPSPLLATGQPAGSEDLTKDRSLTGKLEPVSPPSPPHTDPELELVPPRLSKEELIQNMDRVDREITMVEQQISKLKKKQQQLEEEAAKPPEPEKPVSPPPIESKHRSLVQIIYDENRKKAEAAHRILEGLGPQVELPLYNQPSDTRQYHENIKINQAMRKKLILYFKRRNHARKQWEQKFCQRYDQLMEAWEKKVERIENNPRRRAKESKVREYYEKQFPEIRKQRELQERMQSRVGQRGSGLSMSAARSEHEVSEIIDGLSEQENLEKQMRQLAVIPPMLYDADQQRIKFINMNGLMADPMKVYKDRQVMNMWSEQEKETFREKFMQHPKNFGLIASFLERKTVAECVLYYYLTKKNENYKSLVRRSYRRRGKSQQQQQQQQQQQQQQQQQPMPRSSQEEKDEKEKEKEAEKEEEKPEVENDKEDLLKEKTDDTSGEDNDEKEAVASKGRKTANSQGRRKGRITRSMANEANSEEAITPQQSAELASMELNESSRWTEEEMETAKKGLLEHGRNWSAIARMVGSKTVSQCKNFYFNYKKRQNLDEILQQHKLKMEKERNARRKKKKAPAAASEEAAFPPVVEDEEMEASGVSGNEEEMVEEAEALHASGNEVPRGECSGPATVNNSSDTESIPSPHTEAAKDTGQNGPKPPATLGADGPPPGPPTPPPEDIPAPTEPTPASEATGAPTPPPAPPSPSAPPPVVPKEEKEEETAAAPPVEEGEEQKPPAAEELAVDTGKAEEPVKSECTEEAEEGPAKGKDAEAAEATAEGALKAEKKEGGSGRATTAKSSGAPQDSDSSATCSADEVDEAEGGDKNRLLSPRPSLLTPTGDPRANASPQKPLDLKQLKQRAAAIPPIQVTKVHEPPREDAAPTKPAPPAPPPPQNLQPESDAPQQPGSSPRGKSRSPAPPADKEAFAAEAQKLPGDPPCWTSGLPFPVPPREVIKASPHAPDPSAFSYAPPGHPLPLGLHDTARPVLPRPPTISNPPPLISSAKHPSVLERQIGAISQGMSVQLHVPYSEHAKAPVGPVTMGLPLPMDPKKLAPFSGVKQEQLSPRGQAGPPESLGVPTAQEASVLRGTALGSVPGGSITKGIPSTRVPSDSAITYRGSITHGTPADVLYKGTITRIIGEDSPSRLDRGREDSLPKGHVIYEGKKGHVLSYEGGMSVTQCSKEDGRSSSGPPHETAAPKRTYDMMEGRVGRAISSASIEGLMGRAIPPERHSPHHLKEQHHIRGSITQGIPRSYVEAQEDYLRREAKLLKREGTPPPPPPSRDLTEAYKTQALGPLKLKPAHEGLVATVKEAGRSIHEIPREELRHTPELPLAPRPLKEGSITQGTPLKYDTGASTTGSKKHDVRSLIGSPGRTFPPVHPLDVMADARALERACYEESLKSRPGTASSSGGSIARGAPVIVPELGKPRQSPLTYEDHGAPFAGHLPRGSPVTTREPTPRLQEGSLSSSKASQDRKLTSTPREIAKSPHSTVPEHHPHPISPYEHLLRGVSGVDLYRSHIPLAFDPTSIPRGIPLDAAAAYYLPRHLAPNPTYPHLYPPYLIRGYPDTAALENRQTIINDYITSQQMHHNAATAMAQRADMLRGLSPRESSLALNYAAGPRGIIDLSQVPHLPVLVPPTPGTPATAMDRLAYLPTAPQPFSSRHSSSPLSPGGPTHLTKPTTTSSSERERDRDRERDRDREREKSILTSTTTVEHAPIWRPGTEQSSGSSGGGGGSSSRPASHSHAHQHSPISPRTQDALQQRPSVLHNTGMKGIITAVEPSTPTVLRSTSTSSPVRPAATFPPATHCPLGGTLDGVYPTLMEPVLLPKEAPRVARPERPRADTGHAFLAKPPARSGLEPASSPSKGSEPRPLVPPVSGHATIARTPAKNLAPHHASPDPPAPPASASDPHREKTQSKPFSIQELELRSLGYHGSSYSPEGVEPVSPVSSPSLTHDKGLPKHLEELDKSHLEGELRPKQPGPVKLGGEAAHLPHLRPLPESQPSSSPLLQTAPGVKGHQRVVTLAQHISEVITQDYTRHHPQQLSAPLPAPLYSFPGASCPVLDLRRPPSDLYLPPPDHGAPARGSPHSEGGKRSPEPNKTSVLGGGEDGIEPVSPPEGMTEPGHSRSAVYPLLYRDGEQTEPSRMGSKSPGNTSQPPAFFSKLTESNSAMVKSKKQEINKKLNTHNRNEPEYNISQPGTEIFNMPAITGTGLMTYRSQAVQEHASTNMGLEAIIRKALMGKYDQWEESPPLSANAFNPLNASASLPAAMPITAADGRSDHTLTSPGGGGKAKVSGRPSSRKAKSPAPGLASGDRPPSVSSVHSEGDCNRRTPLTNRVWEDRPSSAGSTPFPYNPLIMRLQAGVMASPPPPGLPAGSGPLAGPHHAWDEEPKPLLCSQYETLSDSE

For assay [4], the target named is Histone deacetylase 4 (Homo sapiens, UniProt P56524). Nature of the assay: Inhibition of N-terminal GST-tagged/C-terminal His-tagged human recombinant HDAC4 (627 to 1084 residues) expressed in baculovirus-infected Sf9 cells assessed as reduction in 7-amino-4-methylcoumarin release measured every 5 mins by fluorescence based analysis.
For assay [5], the system named is MCF7. Nature of the assay: Antiproliferative activity against human MCF7 cells assessed as reduction in cell viability incubated for 48 hrs by SRB assay. It is filed as functional, cell-based. As to conditions: MCF7, 48 h. (In SRB staining, fixed cells bind dye roughly in proportion to their protein.)
The subject of assay [6] is MCF7. Nature of the assay: Induction of cell cycle arrest in human MCF7 cells assessed as accumulation at subG1 phase at 1 uM incubated for 24 to 72 hrs by PI staining based flow cytometric analysis. The assay is classed as functional. As to conditions: time 24-72 hrs. Background: Flow cytometry measures light scatter and fluorescence of single cells or particles in a stream.

Assay [7] has as its system MCF7. Nature of the assay: Induction of apoptosis in human MCF7 cells assessed as reduction in Bcl3 gene expression at 3 uM incubated for 24 hrs by whole transcriptome analysis. It is filed as functional, cell-based.
Assay [8] concerns MCF7. Nature of the assay: Induction of cell cycle arrest in human MCF7 cells assessed as accumulation at G2/M phase at 1 uM incubated for 4 hrs by PI staining based flow cytometric analysis. It is filed as functional.
Assay [9] relates to MCF7. Nature of the assay: Induction of apoptosis in human MCF7 cells assessed as downregulation of c-Myc gene expression at 1 uM measured after 24 hrs whole transcriptome analysis. The assay is classed as functional, cell-based.
In assay [10] the test system is MCF7. Nature of the assay: Induction of cell cycle arrest in human MCF7 cells assessed as accumulation at G2/M phase at 1 uM incubated for 24 hrs by PI staining based flow cytometric analysis. It is filed as functional.
Assay [11] relates to A549. Nature of the assay: Antiproliferative activity against human A549 cells assessed as reduction in cell viability incubated for 48 hrs by SRB assay. It is filed as functional, cell-based. The conditions noted are these: A549, 48 h.
For assay [12], the target named is Histone deacetylase (Homo sapiens) (UniProt Q13547+O15379+Q9UBN7+Q92769+Q9UQL6+Q8WUI4+Q9BY41+Q96DB2+P56524+Q9UKV0+Q969S8). Nature of the assay: Inhibition of HDAC in human MCF7 cells assessed as increase in acetylated histone H4 mRNA level at 3 uM incubated for 24 hrs by whole transcriptome analysis. The assay is classed as cell-based.
Assay [13] has as its system MCF7. Nature of the assay: Upregulation of NFkB2 gene expression in human MCF7 cells at 3 uM incubated for 24 hrs by whole transcriptome analysis. The assay is classed as functional, cell-based.
In assay [14] the test system is MCF7. Nature of the assay: Induction of apoptosis in human MCF7 cells assessed as increase in caspase 3/7 activity at 1 to 3 uM measured after 48 hrs by ELISA. The conditions noted are these: dose 1-3 µM. The assay is classed as functional, cell-based. (In general: ELISA stands for enzyme-linked immunosorbent assay.)
Assay [15] deals with Histone deacetylase 1 (Homo sapiens, UniProt Q13547). Nature of the assay: Inhibition of C-terminal FLAG/His-tagged human recombinant HDAC1 (1 to 482 residues) expressed in baculovirus-infected Sf9 cells assessed as reduction in 7-amino-4-methylcoumarin release using fluorogenic HDAC substrate 3 measured every 5 mins by fluorescence based analysis.
Chain of Histone deacetylase 1 (Q13547 whole entry, the tested form may be a part): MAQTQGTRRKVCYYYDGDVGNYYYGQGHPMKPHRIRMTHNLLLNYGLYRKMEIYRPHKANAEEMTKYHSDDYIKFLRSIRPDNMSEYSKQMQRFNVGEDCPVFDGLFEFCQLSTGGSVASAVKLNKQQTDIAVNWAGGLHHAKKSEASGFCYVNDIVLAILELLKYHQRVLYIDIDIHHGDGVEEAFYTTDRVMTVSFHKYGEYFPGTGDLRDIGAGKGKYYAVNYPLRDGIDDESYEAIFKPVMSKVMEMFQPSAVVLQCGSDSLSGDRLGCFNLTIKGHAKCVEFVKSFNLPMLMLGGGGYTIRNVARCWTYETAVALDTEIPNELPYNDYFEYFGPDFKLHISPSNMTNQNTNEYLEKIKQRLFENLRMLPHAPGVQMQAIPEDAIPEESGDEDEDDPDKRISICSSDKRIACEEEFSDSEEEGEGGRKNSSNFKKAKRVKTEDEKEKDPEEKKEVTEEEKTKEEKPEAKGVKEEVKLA
Assay [16] has as its system MCF7. Nature of the assay: Downregulation of SIRT4 gene expression in human MCF7 cells at 3 uM incubated for 24 hrs by whole transcriptome analysis. The assay is classed as functional, cell-based.
Assay [17] addresses T2, Histone deacetylase 7 (Homo sapiens, UniProt Q8WUI4).
T2 sequence (Q8WUI4 whole entry): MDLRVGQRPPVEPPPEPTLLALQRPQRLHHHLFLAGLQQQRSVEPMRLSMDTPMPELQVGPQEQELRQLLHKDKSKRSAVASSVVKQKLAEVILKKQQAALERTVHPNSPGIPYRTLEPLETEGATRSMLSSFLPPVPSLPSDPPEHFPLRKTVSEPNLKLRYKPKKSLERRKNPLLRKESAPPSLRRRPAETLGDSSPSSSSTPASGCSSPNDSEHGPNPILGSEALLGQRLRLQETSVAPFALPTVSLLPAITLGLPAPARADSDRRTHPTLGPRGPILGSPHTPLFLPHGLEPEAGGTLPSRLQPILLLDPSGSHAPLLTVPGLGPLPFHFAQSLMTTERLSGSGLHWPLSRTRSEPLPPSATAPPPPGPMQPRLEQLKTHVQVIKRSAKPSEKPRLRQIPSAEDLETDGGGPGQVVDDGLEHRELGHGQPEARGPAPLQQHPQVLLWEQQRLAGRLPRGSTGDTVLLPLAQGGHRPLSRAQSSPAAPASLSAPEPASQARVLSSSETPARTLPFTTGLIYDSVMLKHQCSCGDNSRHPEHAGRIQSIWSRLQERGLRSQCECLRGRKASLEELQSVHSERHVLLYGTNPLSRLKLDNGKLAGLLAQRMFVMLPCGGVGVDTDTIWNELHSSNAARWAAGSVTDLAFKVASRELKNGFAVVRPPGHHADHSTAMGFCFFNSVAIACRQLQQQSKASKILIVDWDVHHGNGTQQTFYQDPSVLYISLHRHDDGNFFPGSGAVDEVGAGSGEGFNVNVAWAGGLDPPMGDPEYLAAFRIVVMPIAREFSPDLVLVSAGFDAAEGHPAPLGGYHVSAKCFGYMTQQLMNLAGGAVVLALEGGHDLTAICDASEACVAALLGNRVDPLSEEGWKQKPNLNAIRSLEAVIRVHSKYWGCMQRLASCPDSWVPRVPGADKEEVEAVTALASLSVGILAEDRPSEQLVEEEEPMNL
Nature of the assay: Inhibition of N-terminal GST-tagged human HDAC7 (518 to end residues) expressed in baculovirus-infected Sf9 cells assessed as reduction in 7-amino-4-methylcoumarin release measured every 5 mins by fluorescence based analysis.

The target in assay [18] is Histone deacetylase 2 (Homo sapiens, UniProt Q92769). It is filed as cell-based, Sf9.
Chain of Histone deacetylase 2 (Q92769 whole entry): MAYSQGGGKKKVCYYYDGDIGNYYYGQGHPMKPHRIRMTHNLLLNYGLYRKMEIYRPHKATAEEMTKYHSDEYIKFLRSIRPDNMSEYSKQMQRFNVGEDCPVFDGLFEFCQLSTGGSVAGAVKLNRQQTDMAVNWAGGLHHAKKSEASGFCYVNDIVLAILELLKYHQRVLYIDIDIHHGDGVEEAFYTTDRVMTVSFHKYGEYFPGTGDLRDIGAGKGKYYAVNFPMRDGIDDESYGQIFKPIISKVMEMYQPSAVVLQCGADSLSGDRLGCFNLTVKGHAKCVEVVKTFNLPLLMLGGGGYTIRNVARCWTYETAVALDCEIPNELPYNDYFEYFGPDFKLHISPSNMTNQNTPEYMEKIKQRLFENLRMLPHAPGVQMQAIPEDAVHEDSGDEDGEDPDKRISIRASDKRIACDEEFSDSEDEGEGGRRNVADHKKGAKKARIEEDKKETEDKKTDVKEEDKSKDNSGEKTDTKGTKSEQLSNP
Assay [19] relates to MCF7. Nature of the assay: Induction of apoptosis in human MCF7 cells assessed as reduction in Bcl2 gene expression at 3 uM incubated for 24 hrs by whole transcriptome analysis. It is filed as functional, cell-based.
The test system of assay [20] is MCF7. Nature of the assay: Downregulation of SIRT2 gene expression in human MCF7 cells at 3 uM incubated for 24 hrs by whole transcriptome analysis. It is filed as functional, cell-based.
Assay [21] relates to MCF7. Nature of the assay: Induction of apoptosis in human MCF7 cells assessed as downregulation of c-Myc protein expression at 1 to 3 uM measured after 48 hrs western blot analysis. The assay is classed as functional, cell-based. As to conditions: dose 1-3 µM.
The test system of assay [22] is MCF7. Nature of the assay: Induction of cell cycle arrest in human MCF7 cells assessed as accumulation at G1/S phase at 1 uM incubated for 4 hrs by PI staining based flow cytometric analysis. It is filed as functional.
The subject of assay [23] is MCF7. Nature of the assay: Induction of cell cycle arrest in human MCF7 cells assessed downregulation of RB1 gene expression at 3 uM incubated for 24 hrs by whole transcriptome analysis. The assay is classed as functional, cell-based.
Assay [24] has as its system MCF7. Nature of the assay: Induction of cell cycle arrest in human MCF7 cells assessed downregulation of CDK4 gene expression at 3 uM incubated for 24 hrs by whole transcriptome analysis. The assay is classed as functional, cell-based.
Assay [25] deals with MCF7. Nature of the assay: Induction of cell cycle arrest in human MCF7 cells assessed downregulation of CDK6 gene expression at 3 uM incubated for 24 hrs by whole transcriptome analysis. It is filed as functional, cell-based.
The test system of assay [26] is MCF7. Nature of the assay: Downregulation of NFkB2 gene expression in human MCF7 cells at 3 uM incubated for 24 hrs by whole transcriptome analysis. The assay is classed as functional, cell-based.
Assay [27] deals with MCF7. Nature of the assay: Induction of cell cycle arrest in human MCF7 cells assessed downregulation of CDK2 gene expression at 3 uM incubated for 24 hrs by whole transcriptome analysis. It is filed as functional, cell-based.
The target of assay [28] is T1, Histone deacetylase 5. Nature of the assay: Potency index, ratio of vorinostat IC50 to test compound IC50 for Inhibition of N-terminal GST-tagged human recombinant full length HDAC5 expressed in baculovirus-infected Sf9 cells assessed as reduction in 7-amino-4-methylcoumarin release measured every 5 mins by fluorescence based analysis.
For assay [29], the system named is MCF7. Nature of the assay: Induction of cell cycle arrest in human MCF7 cells assessed downregulation of CDK1 gene expression at 3 uM incubated for 24 hrs by whole transcriptome analysis. The assay is classed as functional, cell-based.
In assay [30] the test system is MCF7. Nature of the assay: Induction of cell cycle arrest in human MCF7 cells assessed downregulation of E2F1 gene expression at 3 uM incubated for 24 hrs by whole transcriptome analysis. The assay is classed as functional, cell-based.
Assay [31] concerns MCF7. Nature of the assay: Upregulation of SIRT4 gene expression in human MCF7 cells at 3 uM incubated for 24 hrs by whole transcriptome analysis. The assay is classed as functional, cell-based.
Assay [32] deals with MCF7. Nature of the assay: Upregulation of SIRT2 gene expression in human MCF7 cells at 3 uM incubated for 24 hrs by whole transcriptome analysis. The assay is classed as functional, cell-based.

Active and inactive are the calls of the source. The rule behind the calls is not given here. Where only a bound is given, the exact number is not on record here.

Take `O=C(NC1CCN(Cc2ccccc2)C1)c1ccc(-c2noc(C(F)(F)F)n2)cc1` (stereo not given): the IC50 (usually the concentration that inhibits the measured activity by half) in assay [1] is 0.061 µM; in assay [2] it was 0.048 µM; in assay [3], 1.09 µM; in assay [4] it was 0.019 µM.
With `CC(C)(C)Nc1c(-c2cccc(C(=O)Nc3ccc(F)cc3N)c2)nc2ccccn12`, the IC50 in assay [5] is 0.7 µM; in assay [1], 12.4 µM; in assay [2] it was 1.3 µM; in assay [3], 2.12 µM; in assay [11], above 10 µM; in assay [15] it was above 10 µM. For the same molecule, the IC50 in assay [4] was above 10 µM; in [17] it was 6.1 µM; in [18], above 10 µM. Besides, the result in [6], in [7], in assay [8], in assay [9], in assay [10] and in assay [13] was Active. Besides, the outcome in assay [14], in assay [19] and in [21] was Active. Moreover, the inhibition result in assay [12], in assay [16] and in [20] was “Active” each time.
For `CC(C)(C)Nc1c(-c2cccc(-c3nc4cc(-c5noc(C(F)(F)F)n5)ccc4[nH]3)c2)nc2ccccn12`, the IC50 is above 10 µM in assay [5]; 0.31 µM in assay [1]; 0.818 µM in [2]; above 10 µM in assay [3]; above 10 µM in assay [11]; above 10 µM in assay [15]. The IC50 was 1.65 µM in assay [4], 4.85 µM in assay [17] and above 10 µM in assay [18]. For the same molecule, the outcome in assay [22], in assay [7], in assay [23], in assay [24], in [9] and in assay [25] was Active. For the same molecule, the outcome in assay [27], in assay [14], in assay [29], in assay [30] and in [19] was Active. Also, the outcome in assay [6] was inactive. Moreover, the inhibition entry in assay [26], in assay [16] and in assay [20] was “Active” in each case. Further, the Ratio IC50 in [28] was above 33.
`CC(C)(C)Nc1c(-c2ccc(-c3noc(C(F)(F)F)n3)cc2)nc2ccccn12`: the IC50 was above 10 µM in assay [5]; 0.812 µM in assay [1]; 2.31 µM in assay [2]; above 10 µM in [3]; above 10 µM in assay [11]; above 10 µM in assay [15]. Further, the figures for the IC50 in [4], in assay [17] and in assay [18] were 3.58 µM, 6.9 µM and above 10 µM, respectively. The outcome in [6], in [7], in assay [23], in assay [24], in assay [8] and in assay [10] was Active. Moreover, the outcome in [25], in assay [27], in assay [14], in [29], in assay [30] and in assay [19] was Active. Besides, the inhibition result in [26], in assay [16] and in [20] was “Active” each time.
As to `COc1cccc2c1C(=O)c1c(O)c3c(c(O)c1C2=O)C[C@@](O)(C(=O)CO)C[C@@H]3O[C@H]1C[C@H](N)[C@H](O)[C@H](C)O1` [DOXORUBICIN], the IC50 in assay [5] was 0.038 µM; in assay [11], 0.09 µM.
In the case of `O=C(CCCCCCC(=O)Nc1ccccc1)NO`, the result in assay [22], in assay [9], in assay [10], in assay [13], in assay [14] and in [31] was Active. The result in assay [32] and in assay [21] was Active. In assay [7], the outcome was inactive.

Source of the values: ChEMBL document CHEMBL4811298, “Discovery of novel class of histone deacetylase inhibitors as potential anticancer agents” (Bioorg Med Chem, 2021).
